Experimental findings from PubChem BioAssay AID858 (Vanderbilt High Throughput Screening Facility, 2007) are described below.

Calls of active or inactive are those of the source.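 The calls were made as follows: active = at least two of three replicate dose series yielding a converging curve fit, whether well or thinly supported; inactive = the rest.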

In the assay the target is D(1A) dopamine receptor (Homo sapiens) (UniProt P21728). The assay can be described thus: D1 receptor modulation with EC30 dopamine, dose response, D1 allosteric modulator project, cell-based, CRE-luciferase, HEK293 (AID 858).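 Also: HEK 293 cells bearing human D1 receptor stimulated by dopamine at its EC30; luciferase light from a cAMP response element reporter gene.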
Sequence of D(1A) dopamine receptor (Homo sapiens) (P21728 whole entry, looked up): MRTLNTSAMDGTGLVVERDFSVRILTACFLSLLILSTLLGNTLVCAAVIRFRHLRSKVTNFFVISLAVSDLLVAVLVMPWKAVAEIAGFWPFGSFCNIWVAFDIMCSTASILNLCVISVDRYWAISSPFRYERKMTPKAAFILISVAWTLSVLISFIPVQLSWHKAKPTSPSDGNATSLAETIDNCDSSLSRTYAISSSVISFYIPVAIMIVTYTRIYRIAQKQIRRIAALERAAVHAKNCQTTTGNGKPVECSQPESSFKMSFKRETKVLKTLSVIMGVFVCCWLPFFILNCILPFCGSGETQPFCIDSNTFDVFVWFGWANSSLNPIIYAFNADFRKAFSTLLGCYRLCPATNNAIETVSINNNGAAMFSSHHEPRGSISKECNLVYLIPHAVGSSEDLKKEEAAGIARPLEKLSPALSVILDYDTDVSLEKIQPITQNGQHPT

For `Brc1ccc(-c2nn3c(Cc4ccccc4)nnc3s2)o1`, the outcome was inactive.
As a reminder, the EC50 is the concentration giving half of the maximal effect. Regarding `CC(C)C1N=C2c3ccccc3N=C(SCC#N)N2C1=O` (configuration not stated), the EC50 was 3140 nM.
As for `O=C(CCCc1nc2ccccc2s1)N1CCN(S(=O)(=O)c2cccs2)CC1`, the result was inactive.
Turning to `CCOC(=O)N1CCC(N2Cc3cccc(C(=O)NC(C)c4ccc5c(c4)OCCO5)c3C2=O)CC1` (configuration not stated), the result was inactive.
Consider `COc1ccc(-c2coc3cc(O)ccc3c2=O)cc1OC`, for which the outcome was inactive.
For the compound `Cn1c(=O)c2c(nc(SCCCC#N)n2Cc2ccccc2F)n(C)c1=O`, the outcome was inactive.
Still for that read-out and setting: the entry for `O=C1N(CN2CCN(c3cccc(Cl)c3)CC2)c2ccccc2C12OCCCO2` is “inactive”; for `CCCCn1c2nc3ccccc3nc2c2c(=O)n(C(C)CC)cnc21` (configuration not stated) it is “inactive”.
Turning to `CCc1nc2ccccc2c(C(=O)OCC(=O)NCc2ccco2)c1C`, the result was inactive.
On the same count and under the same terms, as for `C=CCn1c(=O)c2c(C)c(C)sc2n2c(Nc3ccc(OC)cc3)nnc12`, the entry is “inactive”.
Consider `CCOC(=O)CN(C(=O)CSc1nnc(-c2ccc(OC)c(OC)c2)o1)c1ccc(F)cc1`, for which the outcome was inactive.
Turning to `Cc1cc(NCCCn2ccnc2)n2c(nc3ccccc32)c1C#N`, the result was inactive.
Regarding `COc1ccc(CCN2CCCn3c2nc2c3c(=O)n(Cc3ccccc3F)c(=O)n2C)cc1OC`, the result was inactive.
Consider `CCCOc1ccccc1NC(=O)c1ccc(N)cc1`, for which the result was inactive.
On the same count and under the same terms, as for `Cc1cc(=O)oc2cc(OCC(=O)NCCc3nc4ccccc4[nH]3)ccc12`, the entry is “inactive”; as for `COCCNC(=O)c1c(NC(=O)c2ccco2)n(Cc2ccccc2)c2nc3ccccc3nc12`, “inactive”.
Take `CCCCn1c(=O)c(C(=O)Nc2cnccn2)c(O)c2ccccc21`: the outcome was inactive.
As to `CCOC(=O)C(O)(CCC(O)(C(=O)OCC)C(=O)OCC)C(=O)OCC`, the outcome was inactive.
On to `c1ccc(Cn2nnc3c(N4CCc5ccccc54)ncnc32)cc1`, for which the outcome was inactive.
In the case of `Cc1ccc(OCCN2C(=O)OC(C)(C)C2(C)O)cc1` (configuration not stated), the outcome was inactive.
`O=C(c1ccco1)N1CCN(c2nc(C3CC3)nc3sc4c(c23)CCCC4)CC1`: the result was inactive.
Consider `COc1ccc(CCNS(=O)(=O)c2ccc3c(c2)OCCO3)cc1OC`, for which the result was inactive.
On to `Cc1cc(O)c(C=Nc2cccc(Cl)c2)c(=O)o1`, for which the outcome was inactive.
As for `COC(=O)c1c(-c2ccc(F)cc2)csc1NC(=O)c1ccco1`, the outcome was inactive.
The same measure, in the same setting: the entry for `CC(=O)N=c1sc2nc3ccccc3nc2n1N(C(C)=O)C(C)=O` is “inactive”; for `Cc1ccc(Cn2c(-n3nc(C)cc3C)nc3c2c(=O)[nH]c(=O)n3C)cc1` it is “inactive”; for `COC(=O)c1ccc(C(=O)OC)c(NC(=O)COC(=O)C23CC4CC(CC(O)(C4)C2)C3)c1` it is “inactive”.
With `CS(=O)(=O)c1sc2nc(-c3cccs3)cc(-c3ccccc3)c2c1N`, the outcome was inactive.
The same measure, in the same setting: as for `Cc1csc2c(C#N)c(=O)c3c(n12)CCC3`, the entry is “inactive”.
Still for that read-out and setting: the entry for `Cc1ccc(-n2c(SCC(=O)OC(C)C)nnc2-c2cnccn2)cc1` is “inactive”; for `CCc1ccc2[nH]c(=O)c(CN(Cc3nnnn3C3CCCC3)C3CCCCC3)cc2c1` it is “inactive”.
As to `CCOC(=O)Cc1[nH]nc2c1C(c1cccc(OC)c1OC)C(C#N)=C(N)O2` (configuration not stated), the outcome was inactive.
Take `Nc1nc(CN2CCN(c3ccccn3)CC2)nc(Nc2ccc(Cl)cc2)n1`: the result was inactive.
For the compound `CCOC(=O)c1ccc(Oc2cc(C)nc(SC)n2)cc1`, the result was inactive.
For the compound `Nc1nc2n(n1)C(c1ccco1)CC(c1ccc(F)cc1)N2` (configuration not stated), the result was inactive.
Take `N#Cc1c2c(nc(N)c1-c1ccccc1)CCCCC2`: the result was inactive.
With `N#CCSc1nc2c(sc(=S)n2Cc2ccco2)c(=O)n1-c1ccc(F)cc1`, the outcome was inactive.
Turning to `CCCc1cc(=O)[nH]c(NCc2ccc(Cl)cc2)n1`, the outcome was inactive.
For the compound `Cc1sc2ncnc(SCC(=O)N3CCCC3)c2c1C`, the outcome was inactive.
As for `CCOC(=O)c1c(-c2ccsc2)csc1N`, the result was inactive.
The same measure, in the same setting: the entry for `CCC1(CC)C(=O)NC(=NCCc2c[nH]c3ccccc23)NC1=O` is “inactive”.
For the compound `c1ccc2c(c1)nc(NCC1CCCO1)c1nnnn12` (configuration not stated), the result was inactive.
For the compound `CCSc1cnc(-c2ccccc2)n1CC`, the outcome was inactive.
As to `COC(=O)c1sc(=S)sc1C(=O)OC`, the outcome was inactive.
For the compound `Cn1c2c(c3ccccc31)CC/C2=N\O`, the outcome was inactive.
On the same count and under the same terms, the entry for `Nc1nc(SCC(=O)OCc2ccccc2)[nH]c(=O)c1NC(=O)c1ccco1` is “inactive”; for `CCn1c(SCC(=O)Nc2cc(C)on2)nc2c(c1=O)SC(C)C2` (configuration not stated) it is “inactive”.
In the case of `N#CCCN1CCN(S(=O)(=O)c2ccc(S(=O)(=O)NC3CCCCC3)cc2)CC1`, the result was inactive.
Regarding `Cc1ccc(Nc2nnc(SCc3cc(=O)n4ccsc4n3)s2)c(C)c1`, the outcome was inactive.
As for `O=C(OCCCCN1C(=O)c2ccccc2C1=O)c1n[nH]c2ccccc12`, the result was inactive.
Take `CCCc1nc(N2CCOCC2)c(C#N)c2c1CCCC2`: the result was inactive.
Take `CCOC(=O)c1c(NC(=O)c2cccs2)sc(C)c1CC`: the outcome was inactive.
Take `Fc1ccc(-c2cc(C(F)(F)F)nc(-n3cncn3)n2)cc1`: the outcome was inactive.
Regarding `CCOC(=O)c1cc2c(=O)n3ccccc3nc2n(CCCOC)c1=NC(=O)C(C)(C)C`, the result was inactive.
On to `CCOC(=O)c1oc2ccc(Br)cc2c1NC(=O)CN1CCN(C)CC1`, for which the result was inactive.
In the case of `COc1cccc(-c2nnc(SCC(=O)Nc3cc(C)on3)o2)c1`, the result was inactive.
With `COc1ccc2nc(SCC(=O)N3CCCCCC3)c(C#N)cc2c1`, the outcome was inactive.
Turning to `CCOC(=O)c1ccc(N2CN=C3SCC(=O)N3C2)cc1`, the result was inactive.
In the case of `O=C(CC1SC(=NC2CCCCC2)NC1=O)Nc1ccccc1` (configuration not stated), the result was inactive.
In the case of `CCC(C)Sc1nc2c(c(=O)n1C)SC(C)C2` (configuration not stated), the outcome was inactive.
Still for that read-out and setting: as for `CCCn1c(=NC(C)=O)c(C(=O)OCC)cc2c(=O)n3ccccc3nc21`, the entry is “inactive”; as for `CCN1C(=O)c2cccc3c(S(=O)(=O)Nc4ccccn4)ccc1c23`, “inactive”; as for `C=C(C)CSc1nc2c(cc1C#N)CCC2`, “inactive”.
In the case of `N#Cc1nc(-c2ccc(F)cc2)oc1NCc1ccccc1`, the result was inactive.
Take `Cn1c(=O)c2c(-c3ccccc3)n(N3CCOCC3)cc2n(C)c1=O`: the result was inactive.
On to `N#CC1=C(N)Oc2n[nH]c(-c3cccs3)c2C1c1ccsc1` (configuration not stated), for which the result was inactive.
For the compound `Cn1cccc1C1NC(=O)c2c(sc3c2CCC(C(C)(C)C)C3)N1` (configuration not stated), the outcome was inactive.
As for `Cc1cc(C)c(C#N)c(SCc2ccc(C#N)cc2)n1`, the result was inactive.
Still for that read-out and setting: as for `C=CCn1c(=S)[nH]c2nc3c(cc2c1=O)CCCC3`, the entry is “inactive”; as for `Cc1ccc(-c2nc3ncccn3c2NC(=O)C2CC2)cc1`, “inactive”.
On to `CCCNc1nc2c(c(=O)[nH]c(=O)n2C)n1CCc1ccccc1`, for which the result was inactive.
In the case of `Cn1c(Cn2c(=O)sc3ccccc32)nnc1SCC(=O)N1CCOCC1`, the result was inactive.
For `CCn1c2ccccc2c2nnc(SCCCn3c(=O)[nH]c4ccccc43)nc21`, the outcome was inactive.
On the same count and under the same terms, as for `Fc1cc(Br)ccc1Nc1nc2ccccc2n2nnnc12`, the entry is “inactive”; as for `CCN(CCCNC(=O)CN(C)S(=O)(=O)c1cccc2nsnc12)c1cccc(C)c1`, “inactive”; as for `O=C1CSc2ccccc2N1Cc1ccccc1F`, “inactive”.
Consider `Cc1cc(=O)n(CC=C(Cl)Cl)c2ccccc12`, for which the result was inactive.
The same measure, in the same setting: as for `CC(C)Cn1c(=O)c(C(=O)Nc2cnccn2)c(O)c2ccccc21`, the entry is “inactive”.
With `CSc1nc2oc3c(c2c2nncn12)CC(C)(C)SC3`, the outcome was inactive.
The same measure, in the same setting: as for `CSC1=NCCN1C(=O)c1ccc(Br)o1`, the entry is “inactive”; as for `Cc1cc(C)n(CC(=O)n2c3c(c4ccccc42)CCCC3)n1`, “inactive”; as for `O=S1(=O)N=C(N2CCc3ccccc3C2)c2ccccc21`, “inactive”.
As to `COc1cccc(N2C(=O)C3ON(c4ccccc4)C(c4cccs4)C3C2=O)c1` (configuration not stated), the outcome was inactive.
For `COc1ccc(CCN(C)C(=O)C2CCCN(Cc3ccc(OC)c(OC)c3)C2)cc1OC` (configuration not stated), the outcome was inactive.
On the same count and under the same terms, as for `COc1ccc2c(c1)C(=O)N(c1ccccc1OC)C(=O)C2(C)C`, the entry is “inactive”; as for `Cc1onc(-c2ccccc2)c1C(=O)Nc1ccc2c(c1)OCO2`, “inactive”; as for `C=CCn1c2ccccc2c2nnc(SCC(=O)NC(C(=O)OC)C(C)C)nc21` (configuration not stated), “inactive”.
On to `COC(=O)c1ccc(CSc2nc3c(cnn3-c3ccc(F)cc3)c(=O)[nH]2)o1`, for which the EC50 is 2490 nM.
As for `Clc1ccc(-n2nnnc2-c2ccccc2)cc1`, the outcome was inactive.
Still for that read-out and setting: the entry for `CC(C)OC(=O)CSc1nnc(-c2cnccn2)n1-c1ccc(Cl)cc1` is “inactive”; for `CCOc1ncccc1C(=O)OCc1nnc(-c2ccccc2)o1` it is “inactive”; for `CCC(=O)NC(=Nc1nc2ccccc2s1)NC(=O)CC` it is “inactive”.
Turning to `c1ccc(Nc2nc3ccccc3n3cnnc23)cc1`, the outcome was inactive.
Consider `CC(C)Cn1c(=O)c2c(c3ccccc31)OC(C)C(=O)N2` (configuration not stated), for which the outcome was inactive.
On to `Cc1ccc(-c2cc(-c3ccc(C)o3)nc(N)c2C#N)cc1`, for which the result was inactive.
Regarding `Cc1cc(SCC(=O)N2CCC(c3noc4ccc(F)cc34)CC2)nc2ccccc12`, the result was inactive.
In the case of `CCn1c(=O)c2cc(S(=O)(=O)NC3CCCCC3)ccc2n(CC)c1=O`, the outcome was inactive.
